Measured values published in publication PMC8805605, “Discovery of Dimeric Arylsulfonamides as Potent ADAM8 Inhibitors” (ACS Medicinal Chemistry Letters, 2021).

Molecular target: T1, ADAM10 (Homo sapiens, UniProt O14672)
T1 construct: purchased R&D Systems
T1 sequence (O14672 214-748): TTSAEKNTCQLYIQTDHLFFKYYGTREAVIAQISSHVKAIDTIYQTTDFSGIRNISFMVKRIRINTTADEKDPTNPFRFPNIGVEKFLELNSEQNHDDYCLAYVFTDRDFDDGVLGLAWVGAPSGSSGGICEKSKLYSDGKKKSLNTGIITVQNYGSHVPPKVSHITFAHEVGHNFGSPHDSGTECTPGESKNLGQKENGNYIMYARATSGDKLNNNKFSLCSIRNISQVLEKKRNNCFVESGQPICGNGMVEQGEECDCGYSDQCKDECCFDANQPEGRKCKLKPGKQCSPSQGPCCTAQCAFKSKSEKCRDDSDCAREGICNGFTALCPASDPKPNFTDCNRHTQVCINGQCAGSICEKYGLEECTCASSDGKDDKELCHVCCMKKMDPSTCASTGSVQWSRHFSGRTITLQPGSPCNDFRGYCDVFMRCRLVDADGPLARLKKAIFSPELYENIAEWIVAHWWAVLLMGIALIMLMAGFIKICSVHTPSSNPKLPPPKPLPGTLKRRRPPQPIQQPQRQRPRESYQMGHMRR
Assay: ADAM10 fluorometric inhibition assay
Format: biochemical
Details: mean of three independent experiments in duplicate, read-out: In vitro inhibitory activity IC50 on ADAM10
Procedure: The newly synthesized bivalent derivatives 1–3 were then tested in vitro on human recombinant ADAM8 in comparison with JG26 by a fluorometric assay. The inhibitory activity against a panel of MMPs and ADAM10/17 was determined as well to assess their selectivity profile. […]
VI. Biological Activity on Isolated Enzymes
MMP and ADAM10 inhibition assays.
Recombinant human MMP-14 catalytic domain was a kind gift of Prof. Gillian Murphy (Department of […]
Oncology, University of Cambridge, UK). Pro-MMP-1, pro-MMP-2, and pro-MMP-9, were purchased […]
from Calbiochem (Merck-Millipore). Pro-MMP-12 and ADAM10 were purchased from R&D Systems.
Proenzymes were activated immediately prior to use with p-aminophenylmercuric acetate (APMA 2 […]
mM for 1 h at 37°C for MMP-2 and MMP-1, 1 mM for 1 h at 37°C for MMP-9). Pro-MMP-12 was […]
auto activated by incubating in the fluorometric assay buffer (FAB: Tris 50 mM, pH = 7.5, NaCl 150 […]
mM, CaCl2 10 mM, Brij 35 0.05% and DMSO 1%) for 30 h at 37°C. For assay measurements, each […]
inhibitor stock solution (DMSO, 10 mM) was further diluted in FAB at seven different concentrations.
Activated enzyme (final concentration 0.56 nM for MMP-2, 1.3 nM for MMP-9, 1.0 nM for MMP- […]
14cd, 2.0 nM for MMP-1, 2.3 nM for MMP-12 and 20 nM for ADAM10) and inhibitor solutions were […]
incubated in the assay buffer for 3 h at 25 °C. ADAM10 was incubated for 1 h at 37°C in a different […]
buffer at pH 9 (Tris 25 mM, ZnCl2 25 µM, Brij-35 0.005 %). After the addition of 200 µM solution of […]
the fluorogenic substrate Mca-Lys-Pro-Leu-Gly-Leu-Dap(Dnp)-Ala-Arg-NH2 (Bachem) for all the […]
enzymes in DMSO (final concentration 2 µM for all enzymes, 10 µM for ADAM10), the hydrolysis […]
was monitored every 10 sec. for 15 min. recording the increase in fluorescence (λ ex = 325 nm, λ em = […]
400 nm) using a Molecular Devices SpectraMax Gemini XPS plate reader. The assays were performed […]
in triplicate in a total volume of 200 μL per well in 96-well microtitre plates (Corning, black, NBS).
Control wells lack inhibitor. The MMP inhibition activity was expressed in relative fluorescent units […]
(RFU). Percent of inhibition was calculated from control reactions without the inhibitor. IC50 was determined using the formula: v i/v o = 1/(1 + [I]/ IC50), where v i is the initial velocity of substrate cleavage in the presence of the inhibitor at concentration [I] and v o is the initial velocity in the absence of the inhibitor. Results were analyzed using SoftMax Pro software (version 5.4.3, Molecular Devices, Sunnyvale, CA) and Prism Software version 5.0 (GraphPad Software, Inc., La Jolla, CA, USA).
ADAM8 and ADAM17 inhibition assays […]

Structure (SMILES) | IC50 [µM]
O=C(CCCNC(=O)c1cccc(C(=O)NCCCC(=O)NCCC[C@@H](NS(=O)(=O)c2ccc(OCc3cc(Br)cc(Br)c3)cc2)C(=O)NO)c1)NCCC[C@@H](NS(=O)(=O)c1ccc(OCc2cc(Br)cc(Br)c2)cc1)C(=O)NO [Compound 1] | 30.6
O=C(NCCC[C@@H](NS(=O)(=O)c1ccc(OCc2cc(Br)cc(Br)c2)cc1)C(=O)NO)c1cccc(C(=O)NCCC[C@@H](NS(=O)(=O)c2ccc(OCc3cc(Br)cc(Br)c3)cc2)C(=O)NO)c1 [Compound 2] | 10
NC(=O)NCCC[C@@H](NS(=O)(=O)c1ccc(OCc2cc(Br)cc(Br)c2)cc1)C(=O)NO [JG26, reference compound] | 0.15
O=C(NCCC[C@@H](NS(=O)(=O)c1ccc(OCc2cc(Br)cc(Br)c2)cc1)C(=O)NO)NCCC[C@@H](NS(=O)(=O)c1ccc(OCc2cc(Br)cc(Br)c2)cc1)C(=O)NO [Compound 3] | 27.4
